# Laboratory results published in patent US20210147381A1, “1,2,3,4-SUBSTITUTED QUINOLINE COMPOUNDS AS SIP MODULATORS” (AbbVie Deutschland GmbH & Co. KG, priority 2017, published 2021).
# Like-named read-outs stand apart in the source and are kept apart here.
# Legend:
# Type in all cases: cell-based
# [1] = biological target: T1, human S1P5 receptor (S1PR5) (Homo sapiens, UniProt Q9H228); assay: Intracellular Ca2+ release (method 1), agonist potency and efficacy, S1P5; conditions: for Emax: read-out: hS1P5 EMax
# T1 construct: host or cells: CHO-K1
# Experimental: (§1) Agonistic activity and efficacy of compounds was assessed in recombinant cells using method 1 described below.
# (§2) Agonist potency and efficacy were assessed by measurement of intracellular Ca^2+ release. Recombinant CHO-K1 cells (Euroscreen, Brussels, Belgium) expressing human S1PR5, S1PR1, S1PR3 or S1PR4 receptors, aequorin, and GTP binding protein Gq/i5 were cultured using a medium containing nutrient mixture F-12 Ham (Sigma-Aldrich) with 10% FBS, and 100 μg/mL gentamicin and equilibrated at 5% CO2.
# (§3) 15,000 cells in 20 μL medium were seeded into Biocoat poly-D-Lysine coated 384 well plates (Becton Dickinson #35-6663) and grown to 95% confluency after 24 h.
# (§4) Culture medium was replaced by an assay buffer consisting of HBBS with Ca^2+ and Mg^2+ (Invitrogen #14025-050), 20 mmol/L Hepes (Sigma-Aldrich #H-3375), 2.5 mmol/L probenecid (Sigma-Aldrich #P-8761, and 0.1% BSA (Sigma-Aldrich #A-7030) pH 7.4. The Calcium 5 no-wash FLIPR assay kit (Molecular Devices #5000625) was performed as described in the kit instructions. Cells were incubated with Calcium 5 dye for 1 h at 37° C., 5% CO2 in the dark. After 45 min adaptation to RT assessment of agonist stimulation of intracellular Ca^2+ release was performed by addition of test compounds at various concentrations obtained by serial dilution. Phospho-fingolimod was used as positive control and reference agonist (intrinsic activity 100%).
# (§5) Agonism of test compounds at the human S1Px receptors were characterized by the EC50 values (potencies) deduced from a nonlinear 4 parametric logistic curve fit to the measured fluorescence data after normalization to the lower and upper plateaus of the fitted reference agonist's (phospho-fingolimod)effect curve and by their efficacy (Emax) values represented by their maximum achievable effects in % of the reference agonist's efficacy, which is defined as an Emax of 100%.
# [2] = biological target: T2, human S1P1 receptor (S1PR1) (Homo sapiens, UniProt P21453); assay: Intracellular Ca2+ release (method 1), agonist potency, S1P1; conditions: CHO-K1 cells expressing human S1PR1
# T2 construct: host or cells: CHO-K1
# Experimental: as §1, §2, §3, §4, §5
# [3] = biological target: T3, human S1P4 receptor (S1PR4) (Homo sapiens, UniProt O95977); assay: Intracellular Ca2+ release (method 1), agonist potency, S1P4; conditions: CHO-K1 cells expressing human S1PR4
# T3 construct: host or cells: CHO-K1
# T3 sequence (O95977 1-384): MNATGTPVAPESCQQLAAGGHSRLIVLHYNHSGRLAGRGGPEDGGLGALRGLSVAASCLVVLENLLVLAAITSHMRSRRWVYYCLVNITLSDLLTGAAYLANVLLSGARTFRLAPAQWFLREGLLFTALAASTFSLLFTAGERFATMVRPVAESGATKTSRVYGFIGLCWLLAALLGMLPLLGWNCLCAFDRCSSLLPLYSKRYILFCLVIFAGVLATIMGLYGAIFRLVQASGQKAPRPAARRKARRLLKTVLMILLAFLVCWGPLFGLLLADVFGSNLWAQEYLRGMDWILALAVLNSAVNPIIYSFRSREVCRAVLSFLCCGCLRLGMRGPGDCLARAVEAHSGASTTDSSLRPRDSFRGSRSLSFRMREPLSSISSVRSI
# Experimental: as §1, §2, §3, §4, §5
# [4] = biological target: T4, human S1P3 receptor (S1PR3) (Homo sapiens, UniProt Q99500); assay: Intracellular Ca2+ release (method 1), agonist potency, S1P3
# T4 construct: host or cells: CHO-K1
# Experimental: as §1, §2, §3, §4, §5
# [5] = maximum effect in % of reference agonist phospho-fingolimod (100%)
# [6] = recombinant CHO-K1 cells expressing human S1PR5, aequorin, Gq/i5, Ca2+ release, read-out: S1P5 EC50 range
# [7] = CHO-K1 cells expressing human S1PR3
# [8] = text value for reference compounds lacking the spiro-linked group, read-out: S1P5 EC50
# [9] = value for reference compounds, % of phospho-fingolimod efficacy
# T1 sequence (Q9H228 whole entry): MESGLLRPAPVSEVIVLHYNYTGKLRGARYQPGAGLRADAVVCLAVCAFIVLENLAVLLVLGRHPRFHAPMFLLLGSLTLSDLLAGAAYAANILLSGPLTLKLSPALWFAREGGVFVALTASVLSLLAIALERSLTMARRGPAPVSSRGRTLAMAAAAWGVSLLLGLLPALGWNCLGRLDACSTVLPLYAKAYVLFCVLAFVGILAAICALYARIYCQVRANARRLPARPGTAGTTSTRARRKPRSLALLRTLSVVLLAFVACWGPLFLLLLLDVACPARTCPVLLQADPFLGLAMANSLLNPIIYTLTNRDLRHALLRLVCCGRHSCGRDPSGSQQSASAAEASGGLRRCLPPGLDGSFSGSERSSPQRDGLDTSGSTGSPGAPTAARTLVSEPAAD
# T4 sequence (Q99500 whole entry): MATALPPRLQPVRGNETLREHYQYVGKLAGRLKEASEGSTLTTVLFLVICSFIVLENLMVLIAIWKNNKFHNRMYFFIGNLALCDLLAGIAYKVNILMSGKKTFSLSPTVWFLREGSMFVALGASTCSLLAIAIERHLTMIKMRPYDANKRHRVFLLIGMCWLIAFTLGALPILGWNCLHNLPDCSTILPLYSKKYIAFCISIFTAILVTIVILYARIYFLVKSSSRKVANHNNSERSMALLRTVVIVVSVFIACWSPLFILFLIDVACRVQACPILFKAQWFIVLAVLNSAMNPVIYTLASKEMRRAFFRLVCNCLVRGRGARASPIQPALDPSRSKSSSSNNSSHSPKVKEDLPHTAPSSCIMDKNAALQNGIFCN
# T2 sequence (P21453 whole entry): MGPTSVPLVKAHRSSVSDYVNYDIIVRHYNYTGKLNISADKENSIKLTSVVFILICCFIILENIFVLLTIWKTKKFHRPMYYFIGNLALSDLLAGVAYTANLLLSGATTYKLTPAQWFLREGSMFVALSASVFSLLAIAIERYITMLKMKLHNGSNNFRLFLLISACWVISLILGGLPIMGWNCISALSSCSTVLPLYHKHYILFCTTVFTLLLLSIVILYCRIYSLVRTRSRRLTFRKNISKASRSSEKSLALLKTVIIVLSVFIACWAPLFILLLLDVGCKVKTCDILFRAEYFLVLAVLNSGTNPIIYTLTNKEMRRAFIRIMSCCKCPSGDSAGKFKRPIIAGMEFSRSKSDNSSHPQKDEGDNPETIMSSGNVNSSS
SMILES,"Emax [1, 5] [%]","EC50 [1, 6] [nM]",EC50 [2] [nM],EC50 ([3]; cells given as bound) [nM],"EC50 [4, 7] [nM]",EC50 ([2]; cells given as bound) [nM],EC50 [3] [nM],"EC50 [1, 8] [nM]","Emax [1, 9] [%]",EC50 ([4]; value for reference compounds) [nM]
"CC(CC(=O)O)CN1Cc2ccc(C#Cc3ccc(OC(F)(F)F)cc3)cc2C2(CC2)C1 (stereo not drawn) [Compound 65, 3-methyl-4-(6′-((4-(trifluoromethoxy)phenyl)ethynyl)-1′H-spiro[cyclopropane-1,4′-isoquinolin]-2′(3′H)-yl)butanoic acid]",> 100,100 to 1000,–,> 1000,–,> 1000,–,–,–,–
"CC(CC(=O)O)CN1Cc2ccc(C#Cc3cccc(F)c3F)cc2C2(CC2)C1 (stereo not drawn) [Compound 66, 4-(6′-((2,3-difluorophenyl)ethynyl)-1′H-spiro[cyclopropane-1,4′-isoquinolin]-2′(3′H)-yl)-3-methylbutanoic acid]",50 to 100,100 to 1000,–,> 1000,–,> 1000,–,–,–,–
"CC(CC(=O)O)CN1Cc2ccc(C#Cc3ccsc3)cc2C2(CC2)C1 (stereo not drawn) [Compound 68, 3-methyl-4-(6′-(thiophen-3-ylethynyl)-1′H-spiro[cyclopropane-1,4′-isoquinolin]-2′(3′H)-yl)butanoic acid]",50 to 100,10 to 100,–,> 1000,–,> 1000,–,–,–,–
"CCOc1ccc(C#Cc2ccc3c(c2)C2(CC2)CN(CC(C)CC(=O)O)C3)cc1F (stereo not drawn) [Compound 69, 4-(6′-((4-ethoxy-3-fluorophenyl)ethynyl)-1′H-spiro[cyclopropane-1,4′-isoquinolin]-2′(3′H)-yl)-3-methylbutanoic acid]",> 100,10 to 100,–,> 1000,–,> 1000,–,–,–,–
"CC(C)Oc1ccc(C#Cc2ccc3c(c2)C2(CC2)CN(C2CC(C(=O)O)C2)C3)nc1 (stereo not drawn) [Compound 70, 3-(6′-((5-isopropoxypyridin-2-yl)ethynyl)-1′H-spiro[cyclopropane-1,4′-isoquinolin]-2′(3′H)-yl)cyclobutanecarboxylic acid]",50 to 100,10 to 100,–,> 1000,–,> 1000,–,–,–,–
"O=C(O)C1CC(N2Cc3ccc(C#Cc4ccc(OC(F)(F)F)c(F)c4)cc3C3(CC3)C2)C1 (stereo not drawn) [Compound 71, 3-(6′-((3-fluoro-4-(trifluoromethoxy)phenyl)ethynyl)-1′H-spiro[cyclopropane-1,4′-isoquinolin]-2′(3′H)-yl)cyclobutanecarboxylic acid]",50 to 100,10 to 100,–,> 1000,–,> 1000,–,–,–,–
"CCOc1ccc(C#Cc2ccc3c(c2)C2(CC2)CN(C2CC(C(=O)O)C2)C3)cc1F (stereo not drawn) [Compound 72, 3-(6′-((4-ethoxy-3-fluorophenyl)ethynyl)-1′H-spiro[cyclopropane-1,4′-isoquinolin]-2′(3′H)-yl)cyclobutanecarboxylic acid]",50 to 100,10 to 100,–,> 1000,–,> 1000,–,–,–,–
"CCOc1ccc(C#Cc2ccc3c(c2)C2(CC2)CN(C2CC(C(=O)O)C2)C3)nc1 (stereo not drawn) [Compound 73, 3-(6′-((5-ethoxypyridin-2-yl)ethynyl)-1′H-spiro[cyclopropane-1,4′-isoquinolin]-2′(3′H)-yl)cyclobutanecarboxylic acid]",50 to 100,1000 to 10000,–,> 1000,–,> 1000,–,–,–,–
"O=C(O)CCN1CCc2cc(C#Cc3cccc(F)c3F)ccc2C1 [Reference compound 1, 3-(6-((2,3-difluorophenyl)ethynyl)-3,4-dihydroisoquinolin-2(1H)-yl)propanoic acid, reference compound]",–,–,–,–,–,–,–,29,60,> 1000
"O=C(O)CCN1CCc2cc(C#Cc3c(Cl)cccc3Cl)ccc2C1 [Reference compound 2, 3-(6-((2,6-dichlorophenyl)ethynyl)-3,4-dihydroisoquinolin-2 (1H)-yl)propanoic acid, reference compound]",–,–,–,–,–,–,–,19.2,41,> 1000

# Results, then the compound that gave them:
"Emax [1, 5] [%]","EC50 [1, 6] [nM]",EC50 [2] [nM],EC50 ([3]; cells given as bound) [nM],"EC50 [4, 7] [nM]",EC50 ([2]; cells given as bound) [nM],EC50 [3] [nM],"EC50 [1, 8] [nM]","Emax [1, 9] [%]",EC50 ([4]; value for reference compounds) [nM],SMILES
50 to 100,< 10,100 to 1000,> 1000,> 1000,–,–,–,–,–,"CC(C)c1ccc(C#Cc2ccc3c(c2)C2(CC2)CN(CCCC(=O)O)C3)cc1 [Compound 1, 2′-(3-carboxypropyl)-6′-((4-isopropylphenyl)ethynyl)-2′,3′-dihydro-1′H-spiro[cyclopropane-1,4′-isoquinolin]-2′-ium 2,2,2-trifluoroacetate]"
50 to 100,< 10,–,> 1000,> 1000,> 1000,–,–,–,–,"CC(C)Oc1ccc(C#Cc2ccc3c(c2)C2(CC2)CN(CCCC(=O)O)C3)cn1 [Compound 2, 4-(6′-((6-isopropoxypyridin-3-yl)ethynyl)-1′H-spiro[cyclopropane-1,4′-isoquinolin]-2′(3′H)-yl)butanoic acid]"
50 to 100,< 10,100 to 1000,> 1000,> 1000,–,–,–,–,–,"CCOc1ccc(C#Cc2ccc3c(c2)C2(CC2)CN(CCCC(=O)O)C3)cc1 [Compound 3, 2′-(3-carboxypropyl)-6′-((4-ethoxyphenyl)ethynyl)-2′,3′-dihydro-1′H-spiro[cyclopropane-1,4′-isoquinolin]-2′-ium 2,2,2-trifluoroacetate]"
> 100,< 10,–,–,> 1000,> 1000,10 to 100,–,–,–,"O=C(O)CCN1Cc2ccc(C#Cc3cccc(F)c3F)cc2C2(CC2)C1 [Compound 10, 3-(6′-((2,3-Difluorophenyl)ethynyl)-1′H-spiro[cyclopropane-1,4′-isoquinolin]-2′(3′H)-yl)propanoic acid]"
50 to 100,< 10,–,> 1000,–,> 1000,–,–,–,–,"CC(CC(=O)O)CN1Cc2ccc(C#Cc3ccc(OC(F)(F)F)c(F)c3)cc2C2(CC2)C1 (stereo not drawn) [Compound 61, 4-(6′-((3-fluoro-4-(trifluoromethoxy)phenyl)ethynyl)-1′H-spiro[cyclopropane-1,4′-isoquinolin]-2′(3′H)-yl)-3-methylbutanoic acid]"
> 100,< 10,–,> 1000,–,> 1000,–,–,–,–,"CC(CC(=O)O)CN1Cc2ccc(C#Cc3ccc(OC(C)C)cc3)cc2C2(CC2)C1 (stereo not drawn) [Compound 62, 4-(6′-((4-isopropoxyphenyl)ethynyl)-1′H-spiro[cyclopropane-1,4′-isoquinolin]-2′(3′H)-yl)-3-methylbutanoic acid]"
50 to 100,10 to 100,–,> 1000,–,> 1000,–,–,–,–,"CCOc1ccc(C#Cc2ccc3c(c2)C2(CC2)CN(CC(C)CC(=O)O)C3)cc1 (stereo not drawn) [Compound 63, 4-(6′-((4-ethoxyphenyl)ethynyl)-1′H-spiro[cyclopropane-1,4′-isoquinolin]-2′(3′H)-yl)-3-methylbutanoic acid]"
> 100,10 to 100,–,> 1000,–,> 1000,–,–,–,–,"CC(CC(=O)O)CN1Cc2ccc(C#Cc3ccc(OC4CCCC4)cc3)cc2C2(CC2)C1 (stereo not drawn) [Compound 64, 4-(6′-((4-(cyclopentyloxy)phenyl)ethynyl)-1′H-spiro[cyclopropane-1,4′-isoquinolin]-2′(3′H)-yl)-3-methylbutanoic acid]"
50 to 100,10 to 100,–,> 1000,–,> 1000,–,–,–,–,"CCOc1cc(C)c(C#Cc2ccc3c(c2)C2(CC2)CN(CC(C)CC(=O)O)C3)cn1 (stereo not drawn) [Compound 67, 4-(6′-((6-ethoxy-4-methylpyridin-3-yl)ethynyl)-1′H-spiro[cyclopropane-1,4′-isoquinolin]-2′(3′H)-yl)-3-methylbutanoic acid]"
